The source made the active and inactive calls. No cut-off for these calls is given here.
Columns and labels:
[1] = molecular target: T1, Protein cereblon/Mitogen-activated protein kinase kinase kinase kinase 1 (Homo sapiens, UniProt Q92918+Q96SW2); experiment: PROTAC activity at CRBN/HPK1 in human Jurkat cells assessed as upregulation of PCGF6 expression by Western blotting analysis; assay type: cell-based
[2] = Half life in Sprague-Dawley rat at 10 mg/kg,po measured upto 24 hrs by LC-MS analysis; assay type: ADME, organism-based; conditions: in vivo
[3] = molecular target: T1, Protein cereblon/Mitogen-activated protein kinase kinase kinase kinase 1; experiment: PROTAC activity at CRBN/HPK1 in human Jurkat cells assessed as maximal degradation of HPK1 protein incubated for 24 hrs by Western blotting analysis relative to control; assay type: cell-based
[4] = Tmax in ICR mouse at 1 mg/kg,iv measured upto 24 hrs by LC-MS analysis; assay type: ADME, organism-based; conditions: in vivo
[5] = tested on: Jurkat; experiment: Immunostimulatory activity in anti-CD3/CD28 induced human Jurkat cells assessed as increase in IL-2 release at 10 to 10000 nM incubated for 24 hrs in presence of PGE2 and NECA by ELISA; assay type: functional, cell-based; conditions: dose 10-10000 nM
[6] = molecular target: T1, Protein cereblon/Mitogen-activated protein kinase kinase kinase kinase 1; experiment: PROTAC activity at CRBN/HPK1 in human Jurkat cells assessed as downregulation of GLK expression by Western blotting analysis; assay type: cell-based
[7] = tested on: Jurkat; experiment: Immunostimulatory activity in anti-CD3/CD28 induced human Jurkat cells assessed as increase in IL-2 release incubated for 24 hrs by ELISA; assay type: functional, cell-based
[8] = tested on: Jurkat; experiment: Immunostimulatory activity in anti-CD3/CD28 induced human Jurkat cells assessed as downregulation of NF-kappaB phosphorylation by Western blotting analysis; assay type: functional, cell-based
[9] = AUC (0 to t) in ICR mouse at 10 mg/kg,po measured upto 24 hrs by LC-MS analysis; assay type: ADME, organism-based; conditions: in vivo
[10] = molecular target: T1, Protein cereblon/Mitogen-activated protein kinase kinase kinase kinase 1; experiment: (§1) PROTAC activity at CRBN/HPK1 in human Jurkat cells assessed as degradation of HPK1 protein at 1 uM preincubated with MLN4924 followed by compound addition incubated for 24 hrs by Western blotting analysis; assay type: cell-based
[11] = tested on: Jurkat; experiment: Immunostimulatory activity in anti-CD3/CD28 induced human Jurkat cells assessed as upregulation of JNK phosphorylation by Western blotting analysis; assay type: functional, cell-based
[12] = molecular target: T1, Protein cereblon/Mitogen-activated protein kinase kinase kinase kinase 1; experiment: as §1, with “4-(2-(2,5-Dimethyl-1,2,3,4-tetrahydroisoquinolin-7-y1)-5H-pyrrolo[2,3-bipyrazin-7-y1)-N,N,2-trimethylbenzamide” for “MLN4924”; assay type: cell-based
[13] = molecular target: T1, Protein cereblon/Mitogen-activated protein kinase kinase kinase kinase 1; experiment: PROTAC activity at CRBN/HPK1 in human Jurkat cells assessed as downregulation of PFDN5 expression by Western blotting analysis; assay type: cell-based
[14] = Metabolic stability in human liver microsomes assessed as hepatic extraction ratio; assay type: ADME, Microsome; conditions: read-out: ERH
[15] = Cmax in ICR mouse at 10 mg/kg,po measured upto 24 hrs by LC-MS analysis; assay type: ADME, organism-based; conditions: in vivo
[16] = molecular target: T1, Protein cereblon/Mitogen-activated protein kinase kinase kinase kinase 1; experiment: PROTAC activity at CRBN/HPK1 in human Jurkat cells assessed as upregulation of HGK expression by Western blotting analysis; assay type: cell-based
[17] = molecular target: T1, Protein cereblon/Mitogen-activated protein kinase kinase kinase kinase 1; experiment: PROTAC activity at CRBN/HPK1 in human Jurkat cells assessed as degradation of HPK1 protein at 1 uM preincubated with MG132 followed by compound addition incubated for 24 hrs by Western blotting analysis; assay type: cell-based
[18] = Metabolic stability in mouse liver microsomes assessed as microsomal intrinsic clearance; assay type: ADME, Microsome; conditions: read-out: CLH
[19] = Metabolic stability in human liver microsomes assessed as half life; assay type: ADME, Microsome
[20] = Toxicity in BALB/c mouse implanted with mouse CT26 cells assessed as change in body weight at 25 mg/kg,po administrated once daily for 15 days; assay type: organism-based; conditions: in vivo, 360 h, time 15 day
[21] = molecular target: T1, Protein cereblon/Mitogen-activated protein kinase kinase kinase kinase 1; experiment: PROTAC activity at CRBN/HPK1 in human Jurkat cells assessed as downregulation of KHS expression by Western blotting analysis; assay type: cell-based
[22] = tested on: Jurkat; experiment: Immunostimulatory activity in anti-CD3/CD28 induced human Jurkat cells assessed as upregulation of ERK phosphorylation by Western blotting analysis; assay type: functional, cell-based
[23] = tested on: Jurkat; experiment: Immunostimulatory activity in anti-CD3/CD28 induced human Jurkat cells assessed as downregulation of NF-kappaB expression by Western blotting analysis; assay type: functional, cell-based
[24] = Cmax in Sprague-Dawley rat at 10 mg/kg,po measured upto 24 hrs by LC-MS analysis; assay type: ADME, organism-based; conditions: in vivo
[25] = molecular target: T2, Mitogen-activated protein kinase kinase kinase kinase 3 (Homo sapiens, UniProt Q8IVH8); experiment: Inhibition of GLK (unknown origin)
T2 sequence (Q8IVH8 whole entry): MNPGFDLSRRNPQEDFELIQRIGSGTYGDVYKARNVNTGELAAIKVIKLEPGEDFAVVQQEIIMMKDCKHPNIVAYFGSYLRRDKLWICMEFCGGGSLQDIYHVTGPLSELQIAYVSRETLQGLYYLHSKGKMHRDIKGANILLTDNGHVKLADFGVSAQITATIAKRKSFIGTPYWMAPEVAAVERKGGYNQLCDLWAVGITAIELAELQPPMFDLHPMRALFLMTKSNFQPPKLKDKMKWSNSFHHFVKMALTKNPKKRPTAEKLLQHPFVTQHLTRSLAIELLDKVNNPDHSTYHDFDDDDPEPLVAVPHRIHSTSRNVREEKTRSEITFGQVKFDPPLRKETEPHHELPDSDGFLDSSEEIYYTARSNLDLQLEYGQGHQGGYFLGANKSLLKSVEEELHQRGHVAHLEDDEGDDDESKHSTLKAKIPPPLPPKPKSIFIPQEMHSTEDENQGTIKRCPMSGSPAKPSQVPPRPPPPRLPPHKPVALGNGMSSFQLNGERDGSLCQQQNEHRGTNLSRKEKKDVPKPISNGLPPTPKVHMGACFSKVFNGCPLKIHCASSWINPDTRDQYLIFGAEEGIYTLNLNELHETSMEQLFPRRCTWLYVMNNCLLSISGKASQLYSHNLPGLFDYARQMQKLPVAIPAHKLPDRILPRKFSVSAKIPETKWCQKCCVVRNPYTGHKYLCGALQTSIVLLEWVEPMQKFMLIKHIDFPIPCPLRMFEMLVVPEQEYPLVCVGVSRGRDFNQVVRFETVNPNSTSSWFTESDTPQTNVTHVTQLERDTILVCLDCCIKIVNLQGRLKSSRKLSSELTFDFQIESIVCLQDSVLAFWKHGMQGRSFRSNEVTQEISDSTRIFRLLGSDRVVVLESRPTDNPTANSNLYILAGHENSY

[26] = molecular target: T1, Protein cereblon/Mitogen-activated protein kinase kinase kinase kinase 1; experiment: PROTAC activity at CRBN/HPK1 in human Jurkat cells assessed as degradation of HPK1 protein by Western blotting analysis; assay type: cell-based
[27] = tested on: T-cell line; experiment: Immunostimulatory activity in human T cell assessed as fold increase in IL-2 secretion; assay type: functional
[28] = Stability in human liver microsomes assessed as parent compound remaining measured after 5 mins; assay type: ADME, Microsome; conditions: read-out: Stability
[29] = Stability in human liver microsomes assessed as parent compound remaining measured after 15 mins; assay type: ADME, Microsome; conditions: read-out: Stability
[30] = tested on: Jurkat; experiment: Immunostimulatory activity in anti-CD3/CD28 induced human Jurkat cells assessed as downregulation of SLP76 expression by Western blotting analysis; assay type: functional, cell-based
[31] = Half life in ICR mouse at 1 mg/kg,iv measured upto 24 hrs by LC-MS analysis; assay type: ADME, organism-based; conditions: in vivo
[32] = molecular target: T1, Protein cereblon/Mitogen-activated protein kinase kinase kinase kinase 1; experiment: PROTAC activity at CRBN/HPK1 in human Jurkat cells assessed as degradation of HPK1 protein at 1 uM preincubated with cycloheximide followed by compound addition incubated for 4 hrs by Western blotting analysis; assay type: cell-based

T1 sequence (Q92918 whole entry, looked up): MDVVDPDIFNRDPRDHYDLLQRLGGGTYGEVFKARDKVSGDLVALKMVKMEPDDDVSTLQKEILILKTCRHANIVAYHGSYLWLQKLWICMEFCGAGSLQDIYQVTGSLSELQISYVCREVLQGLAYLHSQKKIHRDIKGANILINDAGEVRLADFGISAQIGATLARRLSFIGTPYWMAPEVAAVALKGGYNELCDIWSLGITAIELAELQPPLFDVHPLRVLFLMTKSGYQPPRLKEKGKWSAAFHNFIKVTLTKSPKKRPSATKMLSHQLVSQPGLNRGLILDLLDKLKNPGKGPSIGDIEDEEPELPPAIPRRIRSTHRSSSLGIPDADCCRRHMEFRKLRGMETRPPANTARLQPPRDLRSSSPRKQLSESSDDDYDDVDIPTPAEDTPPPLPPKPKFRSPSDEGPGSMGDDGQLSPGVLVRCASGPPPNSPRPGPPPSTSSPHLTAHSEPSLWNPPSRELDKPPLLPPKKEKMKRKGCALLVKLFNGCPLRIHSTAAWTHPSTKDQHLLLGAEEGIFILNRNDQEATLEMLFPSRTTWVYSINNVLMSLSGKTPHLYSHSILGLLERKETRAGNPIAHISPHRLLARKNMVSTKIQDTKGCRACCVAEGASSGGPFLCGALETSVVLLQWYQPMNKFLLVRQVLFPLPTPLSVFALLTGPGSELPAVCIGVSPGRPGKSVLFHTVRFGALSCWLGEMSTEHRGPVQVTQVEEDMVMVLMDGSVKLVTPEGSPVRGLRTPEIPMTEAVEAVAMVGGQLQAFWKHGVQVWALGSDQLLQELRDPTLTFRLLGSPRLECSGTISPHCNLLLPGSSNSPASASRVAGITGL
T1 sequence (Q96SW2 whole entry, looked up): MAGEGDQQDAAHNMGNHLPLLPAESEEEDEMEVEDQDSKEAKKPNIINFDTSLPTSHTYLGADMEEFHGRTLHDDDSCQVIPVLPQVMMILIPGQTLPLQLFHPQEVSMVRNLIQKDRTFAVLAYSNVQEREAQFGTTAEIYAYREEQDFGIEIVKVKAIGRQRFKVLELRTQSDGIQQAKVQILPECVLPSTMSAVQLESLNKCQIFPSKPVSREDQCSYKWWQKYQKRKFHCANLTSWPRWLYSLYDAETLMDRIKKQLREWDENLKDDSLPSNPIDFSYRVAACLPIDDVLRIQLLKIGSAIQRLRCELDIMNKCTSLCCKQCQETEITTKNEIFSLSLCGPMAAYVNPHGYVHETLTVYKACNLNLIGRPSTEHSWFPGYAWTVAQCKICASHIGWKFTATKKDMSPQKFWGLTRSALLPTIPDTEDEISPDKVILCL

Activity [1]: Active
half-life [2]: 6.58 h
Emax [3]: 80.5%
Tmax [4]: 4.8 min
Activity [6]: Active
AUC(0-t) at 24 h [9]: 137 µg·h/mL
Activity [10]: inactive
Activity [12]: Active
Activity [13]: Active
hepatic extraction ratio [14]: 0.058
Cmax [15]: 10900 ng/mL
Activity [16]: inactive
Activity [17]: inactive
CLint scaled [18]: 16.6 mL/min/kg
half-life [19]: 16.5 h
Activity [21]: Active
Cmax [24]: 2090 ng/mL
IC50 [25]: > 500 nM
Activity [26]: Active
remaining at 5 min [28]: 96.5%
remaining at 0.25 h [29]: 101%
half-life [31]: 3.13 h
Activity [32]: Active
SMILES: Cc1cc(-c2c[nH]c3ncc(-c4ccc(C5CCN(C6CN(c7ccc8c(c7)C(=O)N(C7CCC(=O)NC7=O)C8=O)C6)CC5)cc4)nc23)ccc1C(=O)N(C)C (configuration not stated)
Activity [5]: inactive
Activity [7]: Dose-Dependent Effect
Activity [8]: Active
Activity [11]: Active
Activity [20]: Non-Toxic
Activity [22]: Active
Activity [23]: Active
fold change (FC) [27]: 70
Activity [30]: Active

— ChEMBL document CHEMBL5576124, “Discovery of an Exceptionally Orally Bioavailable and Potent HPK1 PROTAC with Enhancement of Antitumor Efficacy of Anti-PD-L1 Therapy” (J Med Chem, 2024)
